Results published in patent publication US5089623A, “Certain imidate insecticides” (Imperial Chemical Industries Plc, priority 1990, dated 1992).

Legend:
Format in all cases: in vivo
[1] = tested on: Housefly [Musca domestica]; test: Housefly insecticidal test (HF); settings: per 25 female houseflies, 48 hours
[2] = tested on: Tobacco Budworm [Heliothis virescens (Fabricius)]; test: Tobacco budworm contact test (TBW-C); settings: second-instar larvae, 5 days, percent in solution
How it was run: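 Cotton cotyledons dipped 2–3 s in compound in 50:50 acetone–water, dried, then infested with 5 second-instar larvae and held 5 days at high humidity before scoring mortality.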

[3] = tested on: Tobacco Budworm [Heliothis virescens (Fabricius)] eggs; test: Tobacco budworm egg test (TBW-E); settings: percent in solution
[4] = tested on: Beet Armyworm (Spodoptera exigua); test: Beet armyworm test (BAW)
Procedure: The compounds in Tables 1 and 2 above were tested for insecticidal activity using the following testing procedures. LC50 values, based on the results of these tests and calculated according to dosage-mortality curves, are expressed in Table 3.
Beet Armyworm (Spodoptera exigua)
Test compounds were diluted in a 50-50 acetone-water solution. Young leaves of sugar beets (Beta vulgaris) were immersed in the test solutions for 2-3 seconds and placed on a wire screen to dry. The dried leaves were placed in petri dishes containing a moistened filter paper and infested with five second-instar beet armyworm larvae. The dishes were placed in a high humidity chamber. Mortality of the larvae was recorded five days later. Test concentrations ranged from 0.1% downward. The LC-50 values are expressed below in Table 3 under the heading "BAW" in terms of percent of the test compound in solution.

[5] = tested on: Cabbage Looper [Trichoplusia ni (Hubner)]; test: Cabbage looper test (CL); settings: second-instar larvae, 3-5 days, percent in solution
[6] = tested on: Aster Leafhopper [Macrosteles fascifrens (Stal)]; test: Aster leafhopper test (LH); settings: adults/nymphs, 48 hours, percent in solution
[7] = tested on: Maize weevil [Sitophilus Zeamais (Motschulsky)]; test: Maize weevil test (MW); settings: adult weevils, treated corn seeds, 48 hours, percent in solution
How it was run: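 Adult weevils (10) were placed with four corn seeds that had been dipped 2-3 s in compound dissolved in 50:50 acetone:water, then dried, and held at about 25° C. Mortality was scored at 48 h. LC50 was taken from dosage-mortality curves and expressed as percent compound in solution, from a 0.01% top concentration.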

[8] = second-instar larvae, five days, percent in solution

| Structure (SMILES) | LC50 HF [1] [µg] | LC50 TBW C [2] [%] | LC50 TBW E [3] [%] | LC50 BAW [4, 8] [%] | LC50 CL [5] [%] | LC50 LH [6] [%] | LC50 MW [7] [%] | LC50 BAW ([4]; 120 h) [%] |
| --- | --- | --- | --- | --- | --- | --- | --- | --- |
| Clc1ccc(N=C(OCc2cccc(Oc3ccccc3)c2)C(Cl)Cl)cc1 [Compound 29] | 5 | 0.001 | 0.01 | 0.003 | 0.002 | 0.003 | > 0.01 | – |
| CC(C)C(=Nc1cc(F)cc(C(F)(F)F)c1)OCc1cccc(Oc2ccccc2)c1 [Compound 77] | 10 | 0.0004 | 0.03 | – | 0.0005 | 0.0002 | > 0.01 | 0.0004 |
| CC(C)C(=Nc1cccc(Cl)c1)OCc1cccc(Oc2ccc(Cl)cc2)c1 [Compound 270] | 12 | > 0.0015 | > 0.01 | 0.005 | 0.00025 | 0.003 | > 0.01 | – |
| CC(C)C(=Nc1ccc2c(c1)OC(F)(F)O2)OCc1ccc(F)c(Oc2ccc(F)cc2)c1 [Compound 284] | 39 | 0.0002 | – | 0.0025 | 0.00005 | 0.0003 | 0.0075 | – |
| CC(C)C(=Nc1ccc(Cl)c(Cl)c1)OCc1cccc(Oc2ccccc2)c1 [Compound 9] | 14 | 0.0008 | 0.02 | 0.0005 | 0.001 | 0.0003 | > 0.01 | – |
| FC(F)(F)c1ccc(N=C(OCc2cccc(Oc3ccccc3)c2)C2CC2)cc1 [Compound 62] | 20 | 0.0015 | 0.025 | – | 0.005 | > 0.05 | > 0.01 | 0.02 |
| CC(=Nc1ccccc1)OCc1cccc(Oc2ccccc2)c1 [Compound 42] | 45 | > 0.1 | > 0.1 | > 0.1 | > 0.1 | > 0.05 | > 0.01 | – |
| Clc1ccc(N=C(OCc2cccc(Oc3ccccc3)c2)C2CC2)cc1 [Compound 32] | 37 | 0.006 | 0.1 | – | 0.003 | > 0.05 | > 0.01 | 0.03 |
| CC(C)C(=Nc1ccc(Cl)c(C(F)(F)F)c1)OCc1cccc(Oc2ccccc2)c1 [Compound 71] | 50 | 0.0008 | 0.065 | 0.0004 | 0.0006 | 0.002 | – | – |
| CC(Cl)C(=Nc1ccc(Cl)cc1)OCc1cccc(Oc2ccccc2)c1 (centres unmarked) [Compound 33] | 17 | 0.0025 | > 0.1 | 0.02 | 0.01 | > 0.05 | > 0.01 | – |
| CC(C)C(=Nc1cccc(F)c1)OCc1cccc(Oc2ccccc2)c1 [Compound 47] | 10 | 0.002 | 0.06 | 0.002 | 0.002 | 0.0003 | – | – |
| FC(F)(F)Oc1ccc(N=C(OCc2cccc(Oc3ccccc3)c2)C2CC2)cc1 [Compound 63] | 30 | 0.001 | 0.05 | – | 0.005 | 0.0001 | > 0.01 | 0.005 |
| ClCC(=Nc1ccc(Cl)cc1)OCc1cccc(Oc2ccccc2)c1 [Compound 31] | > 100 | 0.01 | > 0.1 | 0.08 | 0.05 | > 0.05 | > 0.01 | – |
| CC(C)C(=Nc1cccc(I)c1)OCc1ccc(F)c(Oc2ccc(F)cc2)c1 [Compound 279] | 4 | 0.007 | 0.016 | 0.0025 | 0.00008 | 0.0003 | > 0.01 | – |
| Fc1ccc(N=C(OCc2cccc(Oc3ccccc3)c2)C2CC2)cc1 [Compound 45] | 30 | 0.01 | 0.08 | – | 0.03 | > 0.05 | – | 0.1 |
| CC(C)C(=Nc1ccc(F)cc1F)OCc1cccc(Oc2ccccc2)c1 [Compound 52] | 8 | 0.004 | > 0.05 | 0.01 | 0.0025 | 0.001 | – | – |
| FC(F)(F)c1ccc(N=C(OCc2cccc(Oc3ccccc3)c2)C2CC2)c(Cl)c1 [Compound 65] | > 100 | 0.1 | > 0.1 | – | < 0.01 | > 0.05 | – | > 0.1 |
| CC(C)C(=Nc1cccc(C(F)(F)F)c1)OCc1ccc(F)c(Oc2ccccc2)c1 [Compound 80] | 4.5 | 0.00075 | 0.005 | 0.0018 | 0.0003 | 0.0001 | – | – |
| Clc1ccc(N=C(OCc2cccc(Oc3ccccc3)c2)C(Cl)Cl)c(Cl)c1 [Compound 4] | 100 | 0.05 | > 0.1 | 0.04 | 0.007 | > 0.05 | – | – |
| CC(C)C(=Nc1ccc(F)c(F)c1)OCc1cccc(Oc2ccccc2)c1 [Compound 54] | 3.5 | 0.001 | 0.017 | 0.004 | 0.0003 | 0.00015 | – | – |
| CC(C)C(=Nc1ccc(F)c(Cl)c1)OCc1ccc(F)c(Oc2ccc(F)c(F)c2)c1 [Compound 346] | 7.2 | 0.0002 | > 0.1 | > 0.1 | > 0.1 | 0.05 | – | – |
| CC(C)C(=Nc1ccc(Cl)cc1)OCc1cccc(Oc2ccccc2)c1 [Compound 2] | 4.5 | 0.0009 | 0.04 | 0.01 | 0.006 | 0.0003 | – | – |
| CC(C)C(=Nc1ccc(F)c(Cl)c1)OCc1cc(Oc2ccc(F)cc2)c(F)cc1F [Compound 343] | 40 | 0.00025 | > 0.1 | > 0.1 | 0.00027 | – | > 0.01 | – |
